Experimental data: patent US20230111310A1, “CARBOXYLIC ACID DERIVATIVE-SUBSTITUTED IMINO ARYL COMPOUND, PREPARATION METHOD THEREFOR, HERBICIDAL COMPOSITION AND USE THEREOF” (Qingdao Kingagroot Chemical Compound Co., Ltd., priority 2020, published 2023)

Assays:
Assay type in all cases: in vivo
[1] = test system: Abutilon theophrasti; test: Weeding effect in post-emergence stage; conditions: level of fresh weight growth control rate
Summary of the method: (§1)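 Pot-grown greenhouse plants sprayed at 2–3 leaf stage, 2 weeks after sowing, with compound in acetone/Tween 80 plus methyl oleate emulsifiable concentrate (1.5 liter/ha) at 500–7.5 g/ha. Growth control rated 3 weeks after treatment; mean of three replicates.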

[2] = test system: Alopecurus japonicus; test: Weeding effect in post-emergence stage; conditions: level of fresh weight growth control rate
Summary of the method: as §1

[3] = test system: Digitaria sanguinalis; test: Weeding effect in post-emergence stage; conditions: level of fresh weight growth control rate
Summary of the method: as §1

[4] = test system: Eleusine indica; test: Weeding effect in post-emergence stage; conditions: for Weeding effect in post-emergence stage, Eleusine indica: level of fresh weight growth control rate
Summary of the method: as §1

[5] = test system: Setaria viridis; test: Weeding effect in post-emergence stage; conditions: level of fresh weight growth control rate
Summary of the method: as §1

[6] = test system: Amaranthus retroflexus; test: Weeding effect in post-emergence stage; conditions: 7.5 g/ha, 3 weeks
Summary of the method: as §1

[7] = test system: Echinochloa crusgalli; test: Weeding effect in post-emergence stage; conditions: for Weeding effect in post-emergence stage, Echinochloa crusgalli: level of fresh weight growth control rate
Summary of the method: as §1

[8] = test system: Abutilon theophrasti; test: Weeding effect in pre-emergence stage; conditions: 4 weeks
Summary of the method: (§2)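 Test compounds were dissolved in acetone with tween 80, diluted with water and sprayed right after sowing, with seeds covered by 0.5-2 cm of soil. Rates were 500 to 7.5 g/ha. Growth control was scored against activity-level criteria after 4 weeks in the greenhouse.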

[9] = test system: Amaranthus retroflexus; test: Weeding effect in pre-emergence stage; conditions: 4 weeks
Summary of the method: as §2

[10] = test system: Capsella bursa-pastoris; test: Weeding effect in pre-emergence stage; conditions: 4 weeks
Summary of the method: as §2

[11] = test system: Descurainia sophia; test: Weeding effect in pre-emergence stage; conditions: 4 weeks
Summary of the method: as §2

[12] = test system: Setaria viridis; test: Weeding effect in pre-emergence stage; conditions: 4 weeks
Summary of the method: as §2

[13] = test system: Veronica didyma Tenore; test: Weeding effect in pre-emergence stage; conditions: 4 weeks
Summary of the method: as §2

[14] = test system: Peanut; test: Pre-emergence stage, crop selectivity; conditions: 4 weeks
Summary of the method: as §2

[15] = test system: Soybeans; test: Pre-emergence stage, crop selectivity; conditions: 4 weeks
Summary of the method: as §2

[16] = test system: corn; test: Pre-emergence stage, crop selectivity; conditions: 4 weeks
Summary of the method: as §2

[17] = test system: cotton; test: Pre-emergence stage, crop selectivity; conditions: 4 weeks
Summary of the method: as §2

[18] = test system: Leptochloa chinensis; test: Weed control effect evaluation in rice field; conditions: rice field pot, 30 g/ha, 14 days after treatment
Source text: (§3) The activity level criteria for plant damage (i.e., growth control rate) are as follows:
(§4) Rice field soil was loaded into a 1/1,000,000 ha pot. The seeds of Echinochloa crusgalli. Scirpus juncoides. Bidens tripartita L., Monochoria vaginalis, and Leptochloa chinensis were sowed and gently covered with soil, then left to stand still in greenhouse in the state of 0.5-1 cm of water storage. The tuber of Sagittaria trifolia was planted in the next day or 2 days later. It was kept at 3-4 cm of water storage thereafter. The weeds were treated by dripping the WP or SC water diluents prepared according to the common preparation method of the compounds of the present invention with pipette homogeneously to achieve specified effective amount when Echinochloa crusgalli. Scirpus juncoides, Bidens tripartita L., Monochoria vaginalis, and Leptochloa chinensis reached 0.5 leaf stage and Sagittaria trifolia reached the time point of primary leaf stage.
(§5) The fertility condition of Echinochloa crusgalli. Scirpus juncoides. Bidens tripartita L., Monochoria vaginalis, Leptochloa chinensis and Sagittaria trifolia 14 days after the treatment of the compound of the invention and the fertility condition of rice 21 days after the treatment of the compound of the invention respectively with the naked eye. Evaluate the weed control effect with the above activity standard level. Many compounds show excellent activity and selectivity.

[19] = test system: Monochoria vaginalis; test: Weed control effect evaluation in rice field; conditions: rice field pot, 30 g/ha, 14 days after treatment
Source text: as §3, §4, §5

[20] = test system: Scirpus juncoides; test: Weed control effect evaluation in rice field; conditions: rice field pot, 30 g/ha, 14 days after treatment
Source text: as §3, §4, §5

[21] = test system: Rice; test: Transplanted rice safety evaluation; conditions: transplanted japonica rice, 30 g/ha, 21 days after treatment
Method: as §3
In addition, the rice field soil that loaded into the 1/1,000,000 ha pot was leveled to keep water storage at 3-4 cm depth. The 5 leaf stage rice (japonica rice) was transplanted at 3 cm of transplanting depth the next day. The compound of the present invention was treated by the same way after 5 days of transplantation.
as §5

[22] = test system: Echinochloa caudata Roshev.; test: Composition activity test, post-emergence foliage spray
[23] = test system: Descurainia sophia; test: Composition activity test, soil sealing treatment
Method: are as follows, and the others were purchased from reagent companies. The technical materials were all dissolved in acetone and diluted with an aqueous solution containing 0.1% emulsifier Tween-80. The dilution is performed as required.
Weeds are cultivated in a controllable sunlight greenhouse at 20 to 30° C., in natural light, and relative humidity of 57% to 72%. […] The test soil was placed quantitatively to 3/4 of the pots and then watered from the bottom of the pots to completely wet the soil to saturation. The test weed seeds were germinated, and uniformly and quantitatively sowed on the surface, then covered with 0.5-2 cm soil according to the seed size, and ready-for use 72 hours after sowing.
3 pots with 30 weed seeds per pot were treated in one treatment with 4 replications per treatment.
The well-sowed weeds were evenly placed on a platform with an area of 0.5 m^2, and a solution of agents was sprayed on the soil thereof by the 3WP-2000-type walking spray tower at a dosage of 450 kg/ha and at a spray pressure of 0.3 MPa. After all the solution was sprayed, the valve was closed. After 30 seconds, the door of the spray tower was opened, and the nutritional bowl was taken out. Then the valve was opened, and the spray tube was cleaned by spraying 50 ml of water.
A method for investigating absolute number was employed, wherein whole seedlings of survival weeds were cut off with a blade along the soil surface, and the fresh weight of the weeds was weighed with an analytical balance. For dead weeds, the fresh weight thereof was zero.
The investigation was performed after 21 days of the treatment for only once.
An optimum ratio of the two active ingredients was determined by the actual control effect, characteristics of herbicides, and balance of a corresponding formula. Wherein, in the formula, X represented the fresh weight inhibition rate of the active ingredient A in a dosage of P, and Y represented the fresh weight inhibition rate of the active ingredient B in a dosage of Q. The statistical results were shown in the table 6.

[24] = post-emergence, 7.5 g/ha, 3 weeks

COC(=O)[C@@H](C)O/N=C/c1cc(-n2c(=O)cc(C(F)(F)F)n(C)c2=O)c(F)cc1Cl [194(R)]
Weeding effect in post-emergence stage, Abutilon theophrasti ([1]; Dose 7.5 g/ha): 5 (Level 5: growth control rate is above 85%) | Weeding effect in post-emergence stage, Abutilon theophrasti ([1]; Dose 15 g/ha): 5 (Level 5: growth control rate is above 85%) | Weeding effect in post-emergence stage, Alopecurus japonicus ([2]; Dose 7.5 g/ha): 5 (Level 5: growth control rate is above 85%) | Weeding effect in post-emergence stage, Alopecurus japonicus ([2]; Dose 15 g/ha): 5 (Level 5: growth control rate is above 85%) | Weeding effect in post-emergence stage, Digitaria sanguinalis ([3]; Dose 7.5 g/ha): 5 (Level 5: growth control rate is above 85%) | Weeding effect in post-emergence stage, Digitaria sanguinalis ([3]; Dose 15 g/ha): 5 (Level 5: growth control rate is above 85%) | Weeding effect in post-emergence stage, Eleusine indica ([4]; Dose 7.5 g/ha): 5 (Level 5: growth control rate is above 85%) | Weeding effect in post-emergence stage, Eleusine indica ([4]; Dose 15 g/ha): 5 (Level 5: growth control rate is above 85%) | activity level (growth control rate) Eleusine indica [4, 24]: 5 (Level 5: growth control rate is above 85%) | Weeding effect in post-emergence stage, Setaria viridis ([5]; Dose 7.5 g/ha): 5 (Level 5: growth control rate is above 85%) | Weeding effect in post-emergence stage, Setaria viridis ([5]; Dose 15 g/ha): 5 (Level 5: growth control rate is above 85%) | activity level (growth control rate) Amaranthus retroflexus [6]: 5 (Level 5: growth control rate is above 85%) | Weeding effect in post-emergence stage, Echinochloa crusgalli ([7]; Dose 7.5 g/ha): 5 (Level 5: growth control rate is above 85%) | Weeding effect in post-emergence stage, Echinochloa crusgalli ([7]; Dose 15 g/ha): 5 (Level 5: growth control rate is above 85%) | activity level (growth control rate) Echinochloa crusgalli [7, 24]: 5 (Level 5: growth control rate is above 85%) | activity level (growth control rate) Abutilon theophrasti ([8]; 15 g/ha): 5 (Level 5: growth control rate is above 85%) | activity level (growth control rate) Abutilon theophrasti ([8]; 30 g/ha): 5 (Level 5: growth control rate is above 85%) | activity level (growth control rate) Abutilon theophrasti ([8]; 60 g/ha): 5 (Level 5: growth control rate is above 85%) | activity level (growth control rate) Amaranthus retroflexus ([9]; 15 g/ha): 5 (Level 5: growth control rate is above 85%) | activity level (growth control rate) Amaranthus retroflexus ([9]; 30 g/ha): 5 (Level 5: growth control rate is above 85%) | activity level (growth control rate) Amaranthus retroflexus ([9]; 60 g/ha): 5 (Level 5: growth control rate is above 85%) | activity level (growth control rate) Capsella bursa-pastoris ([10]; 15 g/ha): 5 (Level 5: growth control rate is above 85%) | activity level (growth control rate) Capsella bursa-pastoris ([10]; 30 g/ha): 5 (Level 5: growth control rate is above 85%) | activity level (growth control rate) Capsella bursa-pastoris ([10]; 60 g/ha): 5 (Level 5: growth control rate is above 85%) | activity level (growth control rate) Descurainia sophia ([11]; 15 g/ha): 5 (Level 5: growth control rate is above 85%) | activity level (growth control rate) Descurainia sophia ([11]; 30 g/ha): 5 (Level 5: growth control rate is above 85%) | activity level (growth control rate) Descurainia sophia ([11]; 60 g/ha): 5 (Level 5: growth control rate is above 85%) | activity level (growth control rate) Setaria viridis ([12]; 15 g/ha): 5 (Level 5: growth control rate is above 85%) | activity level (growth control rate) Setaria viridis ([12]; 30 g/ha): 5 (Level 5: growth control rate is above 85%) | activity level (growth control rate) Setaria viridis ([12]; 60 g/ha): 5 (Level 5: growth control rate is above 85%) | activity level (growth control rate) Veronica didyma Tenore ([13]; 15 g/ha): 5 (Level 5: growth control rate is above 85%) | activity level (growth control rate) Veronica didyma Tenore ([13]; 30 g/ha): 5 (Level 5: growth control rate is above 85%) | activity level (growth control rate) Veronica didyma Tenore ([13]; 60 g/ha): 5 (Level 5: growth control rate is above 85%) | plant damage level Peanut ([14]; 15 g/ha): 0 (Level 0: growth control rate is less than 5%) | plant damage level Peanut ([14]; 30 g/ha): 0 (Level 0: growth control rate is less than 5%) | plant damage level Peanut ([14]; 60 g/ha): 0 (Level 0: growth control rate is less than 5%) | plant damage level Soybeans ([15]; 15 g/ha): 0 (Level 0: growth control rate is less than 5%) | plant damage level Soybeans ([15]; 30 g/ha): 0 (Level 0: growth control rate is less than 5%) | plant damage level Soybeans ([15]; 60 g/ha): 0 (Level 0: growth control rate is less than 5%) | plant damage level Corn ([16]; 15 g/ha): 0 (Level 0: growth control rate is less than 5%) | plant damage level Corn ([16]; 30 g/ha): 0 (Level 0: growth control rate is less than 5%) | plant damage level Corn ([16]; 60 g/ha): 0 (Level 0: growth control rate is less than 5%) | plant damage level Cotton ([17]; 15 g/ha): 0 (Level 0: growth control rate is less than 5%) | plant damage level Cotton ([17]; 30 g/ha): 0 (Level 0: growth control rate is less than 5%) | plant damage level Cotton ([17]; 60 g/ha): 0 (Level 0: growth control rate is less than 5%) | activity level (weed control effect) Leptochloa chinensis [18]: 5 (Level 5: growth control rate is above 85%) | activity level (weed control effect) Monochoria vaginalis [19]: 5 (Level 5: growth control rate is above 85%) | activity level (weed control effect) Scirpus juncoides [20]: 5 (Level 5: growth control rate is above 85%) | plant damage level Rice [21]: 0 (Level 0: growth control rate is less than 5%)

CCC[S@@+]([O-])c1c(C(F)(F)F)ccc(C(=O)Nc2nnc(C)o2)c1F [Cpd B1]
Control effect (%) of B applied alone (B) ([22]; B 7.5 g a.i./ha): 47.8%

COP(=S)(OC)SCC(=O)N(c1ccc(Cl)cc1)C(C)(C)C [anilofos]
Control effect (%) of B applied alone (B) ([23]; B 75 g a.i./ha): 38.3%

CCCCOCN(C(=O)CCl)c1c(CC)cccc1CC [butachlor]
Control effect (%) of B applied alone (B) ([23]; B 225 g a.i./ha): 42.2%

CC(C)N(C(=O)COc1nnc(C(F)(F)F)s1)c1ccc(F)cc1 [flufenacet]
Control effect (%) of B applied alone (B) ([23]; B 150 g a.i./ha): 45.6%

Cn1[nH]c(C2CC2)c(C(=O)c2ccc(C(F)(F)F)c(N3CCCCC3=O)c2Cl)c1=O [huanbifucaotong]
Control effect (%) of B applied alone (B) ([22]; B 60 g a.i./ha): 27.4%

CS(=O)(=O)c1cc(C(F)(F)F)ccc1C(=O)c1cnoc1C1CC1 [isoxaflutole]
Control effect (%) of B applied alone (B) ([22]; B 15 g a.i./ha): 41.3%
